Source: patent US7087631B2, “Aryltetrazole compounds, and compositions thereof” (Inotek Pharmaceuticals Corporation, priority 2002, dated 2006)

Experiments:
xanthine oxidase = xanthine oxidase (Homo sapiens, UniProt P47989); test: Xanthine oxidase inhibitory activity, 96 well plate, kinetic reading at 295 nm; format: biochemical
gut ischemia reperfusion = test: Gut ischemia reperfusion-induced hyperpermeability and mortality; format: in vivo; details: mice; for Gut Permeability: intraperitoneal, control 100%
Description: Illustrative 5-Aryltetrazole Compounds exert protective effects in various models of organ ischemia and reperfusion. For example, intraperitoneal administration of illustrative 5-Aryltetrazole Compounds retards the progression of gut ischemia reperfusion-induced hyperpermeability and mortality in mice. Results are expressed as % decrease in gut hyperpermeability and as mortality as observed after 6 hours and 2 days of reperfusion. Studies were conducted as described in Shock, 14(2): 134-141 (2000). There was a notable dose-dependent effect on gut hyperpermeability and there was an improvement in survival rate, as tested at the highest dose of both levels.

[1] = system: thioacetamide model of hepatic failure; test: Toxic liver injury model (thioacetamide model of hepatic failure), serum AST; format: in vivo; details: mice; for serum AST levels (result in words): summary of the table; for Percent Inhibition of Serum AST Levels: thioacetamide 400 mg/kg i.p., mean ±SEM (n=7-10)
Description: Illustrative 5-Aryltetrazole Compounds exert hepatoprotective effects in a thioacetamide model of hepatic failure. […] […] Results are expressed as percent inhibtion, mean ±SEM (n=7-10). Studies were conducted as described in Biochim. Biophys. Acta. 1536(1):21-30 (2001).

Sequence of xanthine oxidase (P47989 whole entry, species assumed, the tested form may be a part): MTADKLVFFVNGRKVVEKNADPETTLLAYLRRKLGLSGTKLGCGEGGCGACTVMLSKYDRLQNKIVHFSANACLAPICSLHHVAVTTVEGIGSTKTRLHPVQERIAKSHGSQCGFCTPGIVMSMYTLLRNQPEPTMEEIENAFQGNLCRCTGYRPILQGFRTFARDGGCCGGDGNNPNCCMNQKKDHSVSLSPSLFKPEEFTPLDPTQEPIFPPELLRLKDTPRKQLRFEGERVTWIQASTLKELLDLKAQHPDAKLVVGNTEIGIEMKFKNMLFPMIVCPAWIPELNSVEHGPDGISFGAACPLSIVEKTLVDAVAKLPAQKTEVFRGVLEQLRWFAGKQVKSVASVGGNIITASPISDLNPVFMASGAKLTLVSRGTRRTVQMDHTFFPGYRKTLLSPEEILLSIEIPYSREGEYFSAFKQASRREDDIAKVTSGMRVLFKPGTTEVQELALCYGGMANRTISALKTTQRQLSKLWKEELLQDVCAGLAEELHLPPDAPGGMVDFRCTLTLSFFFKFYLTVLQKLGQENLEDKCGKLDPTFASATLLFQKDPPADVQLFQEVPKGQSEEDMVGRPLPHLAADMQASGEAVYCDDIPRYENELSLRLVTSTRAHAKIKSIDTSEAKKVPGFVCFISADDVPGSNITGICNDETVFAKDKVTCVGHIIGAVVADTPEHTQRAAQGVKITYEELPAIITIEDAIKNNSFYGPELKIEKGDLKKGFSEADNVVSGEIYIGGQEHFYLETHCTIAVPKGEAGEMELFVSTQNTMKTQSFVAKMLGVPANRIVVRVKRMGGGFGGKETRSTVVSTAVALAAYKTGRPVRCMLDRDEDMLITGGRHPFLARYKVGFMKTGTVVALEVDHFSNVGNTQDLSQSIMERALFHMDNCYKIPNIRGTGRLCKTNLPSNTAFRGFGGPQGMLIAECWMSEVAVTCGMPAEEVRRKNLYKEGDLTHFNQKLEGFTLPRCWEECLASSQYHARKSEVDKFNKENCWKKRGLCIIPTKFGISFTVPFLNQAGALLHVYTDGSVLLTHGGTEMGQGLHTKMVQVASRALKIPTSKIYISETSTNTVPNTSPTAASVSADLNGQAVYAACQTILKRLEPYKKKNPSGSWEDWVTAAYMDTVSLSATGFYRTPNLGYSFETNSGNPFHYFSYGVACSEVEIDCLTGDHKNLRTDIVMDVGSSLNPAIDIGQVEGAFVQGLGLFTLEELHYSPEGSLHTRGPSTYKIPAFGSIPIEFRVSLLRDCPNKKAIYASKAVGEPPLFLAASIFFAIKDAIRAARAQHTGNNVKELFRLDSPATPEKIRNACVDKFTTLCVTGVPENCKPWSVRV

Row | SMILES | PERCENT XANTHINE OXIDASE INHIBITION (xanthine oxidase; compound concentration 0.1 μM) [%] | PERCENT XANTHINE OXIDASE INHIBITION (xanthine oxidase; compound concentration 1 μM) [%] | PERCENT XANTHINE OXIDASE INHIBITION (xanthine oxidase; compound concentration 100 μM) [%] | further results
1 | CC(C)Cc1ccc(NC(=O)c2ccc(-c3nnn[nH]3)cc2)cc1 [Compound IG] | 59 | 93 | – | PERCENT XANTHINE OXIDASE INHIBITION (xanthine oxidase; compound concentration 0.03 μM): 33%; Survival % (6 h) (gut ischemia reperfusion; 30 mg/kg, 6 hours of reperfusion, control 60): 87%; Survival % (2 days) (gut ischemia reperfusion; 30 mg/kg, 2 days of reperfusion, control 0): 20%; Gut Permeability (gut ischemia reperfusion; 3 mg/kg): 73%; Gut Permeability (gut ischemia reperfusion; 10 mg/kg): 69%; Gut Permeability (gut ischemia reperfusion; 30 mg/kg): 47%; serum AST levels (result in words) [1]: inhibit serum AST levels; Percent Inhibition of Serum AST Levels ([1]; single oral dose 3 mg/kg): 25 ± 4%; Percent Inhibition of Serum AST Levels ([1]; single oral dose 10 mg/kg): 46 ± 8%
2 | O=C(Nc1ccccc1)c1ccc(-c2nn[nH]n2)cc1 [Compound IC] | 81 | 100 | – | PERCENT XANTHINE OXIDASE INHIBITION (xanthine oxidase; compound concentration 0.03 μM): 60%; serum AST levels (result in words) [1]: inhibit serum AST levels; Percent Inhibition of Serum AST Levels ([1]; single oral dose 3 mg/kg): 3 ± 8%; Percent Inhibition of Serum AST Levels ([1]; single oral dose 10 mg/kg): 20 ± 5%
3 | CCCCc1ccc(NC(=O)c2ccc(-c3nnn[nH]3)cc2)cc1 [IH] | 63 | 95 | – | PERCENT XANTHINE OXIDASE INHIBITION (xanthine oxidase; compound concentration 0.03 μM): 33%
4 | O=[N+]([O-])c1cc(-c2nnn[nH]2)ccc1Cl [HF] | – | – | 80 | –
5 | CC(C)COc1ccc(-c2nnn[nH]2)cc1Br [Compound JC] | 6 | 31 | – | –
6 | Cc1ccc(-c2nnn[nH]2)cc1 [FN] | – | – | 32 | PERCENT XANTHINE OXIDASE INHIBITION (xanthine oxidase; compound concentration 10 μM): 3%
7 | CC(C)(C)OC(=O)N1CCN(C(=O)c2ccc(-c3nnn[nH]3)cc2)CC1 [HK] | – | – | 43 | –
8 | CCOc1ccc(-c2nnn[nH]2)cc1 [HD] | – | – | 60 | –
9 | O=C(OC1CCC2CCCCC2C1)c1ccc(-c2nnn[nH]2)cc1 (centres unmarked) [GY] | 11 | 76 | – | PERCENT XANTHINE OXIDASE INHIBITION (xanthine oxidase; compound concentration 0.01 μM): 19%
10 | CC(=O)Nc1ccc(-c2nn[nH]n2)cc1 [Compound FR] | – | – | 40 | –
11 | CC(C)c1ccccc1NC(=O)c1ccc(-c2nnn[nH]2)cc1 [IF] | – | 16 | – | –
12 | CC(C)COc1ccc(-c2nn[nH]n2)cc1 [Compound IR] | 47 | 88 | – | PERCENT XANTHINE OXIDASE INHIBITION (xanthine oxidase; compound concentration 0.03 μM): 28%
13 | FC(F)(F)Oc1ccc(-c2nnn[nH]2)cc1 [FL] | – | – | 55 | PERCENT XANTHINE OXIDASE INHIBITION (xanthine oxidase; compound concentration 10 μM): 14%
14 | O=C(Nc1ccc(F)cc1F)c1ccc(-c2nnn[nH]2)cc1 [IZ] | 52 | 89 | – | PERCENT XANTHINE OXIDASE INHIBITION (xanthine oxidase; compound concentration 0.03 μM): 23%
15 | O=C(NC1CCCCC1)c1ccc(-c2nnn[nH]2)cc1 [HA] | 10 | 61 | – | –
16 | c1cncc(-c2cccc(-c3nnn[nH]3)c2)c1 [HJ] | – | – | 2 | –
17 | O=C(O)c1cccc(NC(=O)c2ccc(-c3nnn[nH]3)cc2)c1 [IB] | 64 | 94 | – | PERCENT XANTHINE OXIDASE INHIBITION (xanthine oxidase; compound concentration 0.03 μM): 38%
18 | O=C(/C=C/c1ccccc1)Nc1nnn[nH]1 [Compound HN] | – | 10 | 42 | PERCENT XANTHINE OXIDASE INHIBITION (xanthine oxidase; compound concentration 10 μM): 13%
19 | COc1cc(-c2nnn[nH]2)ccc1OCC(C)C [JD] | 0 | 28 | – | –
20 | Cc1cc(C(=O)Nc2ccccc2)ccc1-c1nnn[nH]1 [JK] | – | 0 | – | –
21 | Nc1ccc(-c2nnn[nH]2)cc1 [FO] | – | – | 30 | PERCENT XANTHINE OXIDASE INHIBITION (xanthine oxidase; compound concentration 10 μM): 3%
22 | Clc1ccc(-c2nnn[nH]2)cc1 [FH] | – | – | 69 | PERCENT XANTHINE OXIDASE INHIBITION (xanthine oxidase; compound concentration 10 μM): 27%

Further lines, with some results ahead:

Row | PERCENT XANTHINE OXIDASE INHIBITION (xanthine oxidase; compound concentration 0.1 μM) [%] | PERCENT XANTHINE OXIDASE INHIBITION (xanthine oxidase; compound concentration 1 μM) [%] | PERCENT XANTHINE OXIDASE INHIBITION (xanthine oxidase; compound concentration 100 μM) [%] | SMILES | further results
23 | 74 | 98 | – | O=C(Nc1ccc(Cl)cc1)c1ccc(-c2nnn[nH]2)cc1 [IX] | PERCENT XANTHINE OXIDASE INHIBITION (xanthine oxidase; compound concentration 0.03 μM): 46%; serum AST levels (result in words) [1]: inhibit serum AST levels; Percent Inhibition of Serum AST Levels ([1]; single oral dose 10 mg/kg): 31 ± 1%
24 | 52 | 92 | – | CC(C)c1ccc(NC(=O)c2ccc(-c3nnn[nH]3)cc2)cc1 [Compound IP] | PERCENT XANTHINE OXIDASE INHIBITION (xanthine oxidase; compound concentration 0.03 μM): 28%; serum AST levels (result in words) [1]: inhibit serum AST levels; Percent Inhibition of Serum AST Levels ([1]; single oral dose 3 mg/kg): 23 ± 8%; Percent Inhibition of Serum AST Levels ([1]; single oral dose 10 mg/kg): 41 ± 8%
25 | 41 | 88 | – | Cc1ccc(NC(=O)c2ccc(-c3nnn[nH]3)cc2)cc1 [Compound JN] | PERCENT XANTHINE OXIDASE INHIBITION (xanthine oxidase; compound concentration 0.03 μM): 20%; Percent Inhibition of Serum AST Levels ([1]; single oral dose 3 mg/kg): 11 ± 7%; Percent Inhibition of Serum AST Levels ([1]; single oral dose 10 mg/kg): 31 ± 7%
26 | – | 0 | – | CN(C(=O)c1ccc(-c2nnn[nH]2)cc1)c1ccccc1 [IM] | –
27 | – | 64 | 100 | CCOC(=O)c1ccc(-c2nnn[nH]2)cc1 [FV] | PERCENT XANTHINE OXIDASE INHIBITION (xanthine oxidase; compound concentration 10 μM): 92%
28 | 6 | 34 | – | N#Cc1cc(-c2nnn[nH]2)ccc1C(=O)Nc1ccccc1 [JF] | –
29 | – | 0 | – | O=C(Nc1ccccc1)c1cccc(-c2nnn[nH]2)c1 [IO] | –
30 | 59 | 99 | – | O=C(OCC(F)(F)F)c1ccc(-c2nnn[nH]2)cc1 [GJ] | PERCENT XANTHINE OXIDASE INHIBITION (xanthine oxidase; compound concentration 0.01 μM): 12%
31 | 95 | 95 | – | CCCOC(=O)c1ccc(-c2nnn[nH]2)cc1 [HR] | PERCENT XANTHINE OXIDASE INHIBITION (xanthine oxidase; compound concentration 0.05 μM): 34%
32 | 95 | 98 | – | O=C(OCc1cccnc1)c1ccc(-c2nnn[nH]2)cc1 [HO] | PERCENT XANTHINE OXIDASE INHIBITION (xanthine oxidase; compound concentration 0.05 μM): 46%
33 | 53 | 94 | – | O=C(Oc1cccc(Br)c1)c1ccc(-c2nnn[nH]2)cc1 [GT] | PERCENT XANTHINE OXIDASE INHIBITION (xanthine oxidase; compound concentration 0.01 μM): 8%
34 | – | 82 | 100 | O=C(OCC1CC1)c1ccc(-c2nnn[nH]2)cc1 [GB] | PERCENT XANTHINE OXIDASE INHIBITION (xanthine oxidase; compound concentration 10 μM): 97%
35 | – | 88 | 100 | CC(C)OC(=O)c1ccc(-c2nnn[nH]2)cc1 [FZ] | PERCENT XANTHINE OXIDASE INHIBITION (xanthine oxidase; compound concentration 10 μM): 97%
36 | 38 | 89 | – | CCc1ccc(NC(=O)c2ccc(-c3nnn[nH]3)cc2)cc1 [JM] | PERCENT XANTHINE OXIDASE INHIBITION (xanthine oxidase; compound concentration 0.03 μM): 16%; Percent Inhibition of Serum AST Levels ([1]; single oral dose 3 mg/kg): 12 ± 7%; Percent Inhibition of Serum AST Levels ([1]; single oral dose 10 mg/kg): 31 ± 7%
37 | 68 | 97 | – | O=C(O)c1ccc(NC(=O)c2ccc(-c3nnn[nH]3)cc2)cc1 [Compound IS] | PERCENT XANTHINE OXIDASE INHIBITION (xanthine oxidase; compound concentration 0.03 μM): 44%; serum AST levels (result in words) [1]: inhibit serum AST levels; Percent Inhibition of Serum AST Levels ([1]; single oral dose 10 mg/kg): 33 ± 5%
38 | – | 25 | – | O=C(NCc1ccc2c(c1)OCO2)c1ccc(-c2nnn[nH]2)cc1 [HB] | –
39 | – | 0 | – | O=C(Nc1ccccc1)c1ccc(-c2nnn[nH]2)cc1Cl [JJ] | –
40 | 10 | 35 | – | c1ccc(COc2ccc(-c3nnn[nH]3)cc2)cc1 [IV] | –
41 | 100 | 100 | – | O=C(OCc1ccc(Cl)cc1)c1ccc(-c2nnn[nH]2)cc1 [GE] | PERCENT XANTHINE OXIDASE INHIBITION (xanthine oxidase; compound concentration 0.05 μM): 59%
42 | 18 | 82 | – | O=C(OC1CCCCC1)c1ccc(-c2nnn[nH]2)cc1 [GO] | PERCENT XANTHINE OXIDASE INHIBITION (xanthine oxidase; compound concentration 0.01 μM): 6%
43 | 45 | 86 | – | O=C(Nc1ccccc1F)c1ccc(-c2nnn[nH]2)cc1 [HY] | PERCENT XANTHINE OXIDASE INHIBITION (xanthine oxidase; compound concentration 0.03 μM): 20%
44 | – | – | 71 | COc1ccc(-c2nnn[nH]2)cc1 [FK] | PERCENT XANTHINE OXIDASE INHIBITION (xanthine oxidase; compound concentration 10 μM): 30%
45 | 8 | 48 | – | C=C(C)C1CC=C(COC(=O)c2ccc(-c3nnn[nH]3)cc2)CC1 (centres unmarked) [GR] | PERCENT XANTHINE OXIDASE INHIBITION (xanthine oxidase; compound concentration 0.01 μM): 0%
46 | – | 79 | 100 | O=C(OCc1cccc(Cl)c1)c1ccc(-c2nnn[nH]2)cc1 [GD] | PERCENT XANTHINE OXIDASE INHIBITION (xanthine oxidase; compound concentration 10 μM): 82%
47 | 61 | 93 | – | N#Cc1cc(-c2nnn[nH]2)ccc1C(=O)Nc1ccncc1 [JG] | PERCENT XANTHINE OXIDASE INHIBITION (xanthine oxidase; compound concentration 0.03 μM): 33%
48 | 69 | 94 | – | O=C(OCc1ccc(Br)cc1)c1ccc(-c2nnn[nH]2)cc1 [GU] | PERCENT XANTHINE OXIDASE INHIBITION (xanthine oxidase; compound concentration 0.01 μM): 17%
